How the values were obtained:
[1] = In vitro oral metabolic bioavailability after incubation with hepatic microsomes; format: ADME, Liver; conditions: read-out: MF
[2] = target: T1, 5-hydroxytryptamine receptor 1A (Homo sapiens, UniProt P08908); experiment: Binding affinity at human 5-hydroxytryptamine 1A receptor by inhibition of [3H]8-OH-DPAT binding in Chinese hamster ovary cell line; format: cell-based
T1 sequence (P08908 whole entry): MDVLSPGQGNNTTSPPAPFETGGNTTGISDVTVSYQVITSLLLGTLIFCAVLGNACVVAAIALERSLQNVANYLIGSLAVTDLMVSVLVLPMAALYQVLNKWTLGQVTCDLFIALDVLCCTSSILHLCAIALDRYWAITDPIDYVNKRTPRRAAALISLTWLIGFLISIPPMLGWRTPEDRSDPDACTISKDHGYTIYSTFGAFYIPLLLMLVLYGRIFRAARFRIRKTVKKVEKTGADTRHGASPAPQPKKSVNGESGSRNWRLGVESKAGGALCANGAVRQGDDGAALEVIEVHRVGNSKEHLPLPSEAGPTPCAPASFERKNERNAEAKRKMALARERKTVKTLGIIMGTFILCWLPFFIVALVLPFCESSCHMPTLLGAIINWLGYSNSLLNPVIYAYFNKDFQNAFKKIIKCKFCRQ

[3] = target: T2, Adrenergic receptor alpha-1 (Rattus norvegicus, UniProt P15823+P23944+P43140); experiment: Binding affinity at Alpha-1 adrenergic receptor by inhibition of [3H]-prazosin binding to rat cortex
T2 sequence (P15823 whole entry): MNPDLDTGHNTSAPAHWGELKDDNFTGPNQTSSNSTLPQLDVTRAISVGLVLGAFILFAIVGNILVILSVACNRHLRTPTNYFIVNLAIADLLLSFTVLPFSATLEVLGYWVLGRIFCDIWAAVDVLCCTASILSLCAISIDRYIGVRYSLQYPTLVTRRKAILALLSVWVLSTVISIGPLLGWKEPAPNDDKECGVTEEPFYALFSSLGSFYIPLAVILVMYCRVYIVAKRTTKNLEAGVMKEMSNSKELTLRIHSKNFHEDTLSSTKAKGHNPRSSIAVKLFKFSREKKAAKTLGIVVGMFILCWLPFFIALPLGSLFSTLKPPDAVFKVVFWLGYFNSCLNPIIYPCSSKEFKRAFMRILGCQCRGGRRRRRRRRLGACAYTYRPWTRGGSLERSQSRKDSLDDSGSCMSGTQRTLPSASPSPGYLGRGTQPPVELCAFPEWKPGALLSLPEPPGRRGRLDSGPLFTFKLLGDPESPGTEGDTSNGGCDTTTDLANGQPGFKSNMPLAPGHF
T2 sequence (P23944 whole entry): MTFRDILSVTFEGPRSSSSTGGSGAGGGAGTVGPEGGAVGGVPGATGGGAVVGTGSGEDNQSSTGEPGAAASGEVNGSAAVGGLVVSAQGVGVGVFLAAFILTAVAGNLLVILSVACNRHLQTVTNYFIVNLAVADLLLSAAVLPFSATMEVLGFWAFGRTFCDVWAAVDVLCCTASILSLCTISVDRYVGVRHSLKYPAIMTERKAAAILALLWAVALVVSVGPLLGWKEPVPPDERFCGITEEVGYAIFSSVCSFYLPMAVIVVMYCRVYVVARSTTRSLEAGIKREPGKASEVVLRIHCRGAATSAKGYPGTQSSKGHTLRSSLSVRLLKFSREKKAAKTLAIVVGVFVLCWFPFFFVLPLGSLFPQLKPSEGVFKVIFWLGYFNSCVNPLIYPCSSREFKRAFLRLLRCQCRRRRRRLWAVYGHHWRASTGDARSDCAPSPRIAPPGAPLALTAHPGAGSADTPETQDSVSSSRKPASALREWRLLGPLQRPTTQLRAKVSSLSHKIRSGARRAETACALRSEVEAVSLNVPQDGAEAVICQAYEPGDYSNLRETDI
T2 sequence (P43140 whole entry): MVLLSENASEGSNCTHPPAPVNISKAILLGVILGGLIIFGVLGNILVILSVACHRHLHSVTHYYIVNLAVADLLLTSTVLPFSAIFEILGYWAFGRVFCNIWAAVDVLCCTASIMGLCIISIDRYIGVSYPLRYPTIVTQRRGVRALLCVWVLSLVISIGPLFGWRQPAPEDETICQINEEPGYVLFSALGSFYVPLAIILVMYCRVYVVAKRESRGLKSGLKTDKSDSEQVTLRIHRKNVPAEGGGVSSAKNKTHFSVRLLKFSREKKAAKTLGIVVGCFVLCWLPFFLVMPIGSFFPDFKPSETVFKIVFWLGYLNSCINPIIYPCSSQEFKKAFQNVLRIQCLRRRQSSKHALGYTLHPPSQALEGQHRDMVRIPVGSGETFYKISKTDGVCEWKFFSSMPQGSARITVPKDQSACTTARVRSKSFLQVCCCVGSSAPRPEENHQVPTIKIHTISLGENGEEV

[4] = target: T3, 5-hydroxytryptamine receptor 1A (Rattus norvegicus) (UniProt P19327); experiment: Antagonistic activity at postsynaptic 5-hydroxytryptamine 1A receptor was measured by its ability to inhibit hypothermia elicited by s.c. administration of 8-OH-DPAT in rat;ranges from (0.72-2.87); format: functional, organism-based
T3 sequence (whole entry): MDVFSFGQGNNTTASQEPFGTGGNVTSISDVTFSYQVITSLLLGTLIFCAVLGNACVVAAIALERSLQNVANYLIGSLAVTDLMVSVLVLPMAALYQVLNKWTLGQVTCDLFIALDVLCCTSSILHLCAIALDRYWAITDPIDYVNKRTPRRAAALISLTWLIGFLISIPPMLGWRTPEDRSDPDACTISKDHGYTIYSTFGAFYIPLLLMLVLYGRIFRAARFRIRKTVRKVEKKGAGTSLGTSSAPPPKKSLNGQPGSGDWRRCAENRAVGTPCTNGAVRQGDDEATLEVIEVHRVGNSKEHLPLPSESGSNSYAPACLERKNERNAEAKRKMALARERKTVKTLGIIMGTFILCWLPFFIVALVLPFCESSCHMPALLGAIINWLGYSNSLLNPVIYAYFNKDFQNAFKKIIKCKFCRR

[5] = Selectivity ratio towards Alpha-1 adrenergic receptor to human 5-hydroxytryptamine 1A receptor
[6] = target: T3, 5-hydroxytryptamine receptor 1A (Rattus norvegicus); experiment: Antagonistic activity at postsynaptic 5-hydroxytryptamine 1A receptor was measured by its ability to inhibit hypothermia elicited by s.c. administration of 8-OH-DPAT in rat;ranges from (0.37-4.27); format: functional, organism-based
[7] = target: T3, 5-hydroxytryptamine receptor 1A (Rattus norvegicus); experiment: Antagonistic activity at postsynaptic 5-hydroxytryptamine 1A receptor was measured by its ability to inhibit hypothermia elicited by s.c. administration of 8-OH-DPAT in rat;ranges from (0.10-6.20); format: functional, organism-based
[8] = target: T3, 5-hydroxytryptamine receptor 1A (Rattus norvegicus); experiment: Antagonistic activity at postsynaptic 5-hydroxytryptamine 1A receptor was measured by its ability to inhibit hypothermia elicited by s.c. administration of 8-OH-DPAT in rat;ranges from (0.80-5.80); format: functional, organism-based
[9] = target: T3, 5-hydroxytryptamine receptor 1A (Rattus norvegicus); experiment: Antagonistic activity at postsynaptic 5-hydroxytryptamine 1A receptor was measured by its ability to inhibit hypothermia elicited by s.c. administration of 8-OH-DPAT in rat;ranges from (0.60-1.60); format: functional, organism-based
[10] = target: T3, 5-hydroxytryptamine receptor 1A (Rattus norvegicus); experiment: Antagonistic activity at postsynaptic 5-hydroxytryptamine 1A receptor was measured by its ability to inhibit hypothermia elicited by s.c. administration of 8-OH-DPAT in rat;ranges from (1.50-16.5); format: functional, organism-based
[11] = target: T3, 5-hydroxytryptamine receptor 1A (Rattus norvegicus); experiment: Antagonistic activity at postsynaptic 5-hydroxytryptamine 1A receptor was measured by its ability to inhibit hypothermia elicited by s.c. administration of 8-OH-DPAT in rat;ranges from (0.40-2.70); format: functional, organism-based

| Fh [1] | Ki [2] | Log Ki [3] | Ratio [5] | SMILES | further results |
| --- | --- | --- | --- | --- | --- |
| 4% | 0.794 nM | -6.9 | 158 | c1ccc2c(c1)CC(N1CCN(c3cccc4c3OCCO4)CC1)C2 | ID50 [4]: 1.44 mg/kg |
| 80% | 1.26 nM | -6.55 | – | COc1ccc2c(c1)C[C@@H](N1CCN(c3cccc4c3OCCO4)CC1)[C@@H]2O (racemic) | – |
| 65% | 1.26 nM | -6.15 | – | O[C@@H]1c2ccc(F)cc2C[C@H]1N1CCN(c2cccc3c2OCCO3)CC1 (racemic) | – |
| – | 4.9 nM | -7.26 | 11 | O[C@@H]1c2ccc(F)cc2C[C@H]1N1CCC(c2cc(F)cc3c2OCCC3)CC1 (relative stereo) | – |
| – | 1.32 nM | -6.07 | 645 | O[C@@H]1c2ccc(F)cc2C[C@H]1N1CCN(c2cc(Cl)cc3c2OCCO3)CC1 (relative stereo) | – |
| 62% | 0.447 nM | -6.57 | 603 | COc1ccc2c(c1)[C@@H](O)[C@H](N1CCN(c3cccc4c3OCCO4)CC1)C2 (relative stereo) | ID50 [6]: 1.25 mg/kg |
| 71% | 0.741 nM | -6.03 | 1260 | O=[N+]([O-])c1ccc2c(c1)[C@@H](O)[C@H](N1CCN(c3cccc4c3OCCO4)CC1)C2 (relative stereo) | ID50 [7]: 0.9 mg/kg |
| – | 1.29 nM | -6.67 | 166 | O[C@@H]1c2ccc(F)cc2C[C@H]1N1CCN(c2cccc3c2OCCC3)CC1 (relative stereo) | – |
| – | 23.4 nM | – | – | COc1ccc2c(c1)C[C@@H](N1CCN(c3cccc4c3OCCO4)CC1)[C@H]2O (relative stereo) | – |
| – | 316 nM | – | – | O[C@H]1c2ccc(F)cc2C[C@H]1N1CCN(c2cccc3c2OCCC3)CC1 (relative stereo) | – |
| – | 0.55 nM | -7.44 | 66 | Cc1ccc2c(c1)[C@@H](O)[C@H](N1CCC(c3cccc4c3OCCO4)CC1)C2 (relative stereo) | – |
| – | 10.5 nM | -6.17 | 64 | OCC1COc2c(cc(Cl)cc2N2CCN([C@@H]3Cc4cc(F)ccc4[C@H]3O)CC2)O1 (relative stereo) | – |
| – | 0.302 nM | -7.64 | 76 | O[C@@H]1c2ccc(F)cc2C[C@H]1N1CCC(c2cccc3c2OCCC3)CC1 (relative stereo) | – |
| 8% | 0.776 nM | -7.1 | 102 | O[C@@H]1c2cc(F)ccc2C[C@H]1N1CCC(c2cccc3c2OCCO3)CC1 (relative stereo) | ID50 [8]: 2.1 mg/kg |
| – | 17.4 nM | – | – | COc1ccc2c(c1)[C@H](O)[C@H](N1CCN(c3cccc4c3OCCO4)CC1)C2 (relative stereo) | – |
| – | 1.51 nM | -7.34 | 30 | O[C@@H]1c2ccc(F)cc2C[C@H]1N1CCC(c2cccc3c2OCC3)CC1 (relative stereo) | – |
| 8% | 0.525 nM | -7.53 | 56 | O[C@@H]1c2cc3c(cc2C[C@H]1N1CCC(c2cccc4c2OCCO4)CC1)OCO3 (relative stereo) | ID50 [9]: 1 mg/kg |
| 5% | 2.19 nM | -7.08 | 38 | O[C@@H]1c2cc(F)c(F)cc2C[C@H]1N1CCC(c2cccc3c2OCCO3)CC1 (relative stereo) | ID50 [10]: 5 mg/kg |
| 46% | 1.32 nM | -6.13 | 561 | O[C@@H]1c2cc(F)ccc2C[C@H]1N1CCN(c2cccc3c2OCCO3)CC1 (relative stereo) | ID50 [11]: 1 mg/kg |
| – | 26.9 nM | – | – | O[C@H]1c2ccc(F)cc2C[C@H]1N1CCC(c2cccc3c2OCCO3)CC1 (relative stereo) | – |
| – | 79.4 nM | -6.9 | 1.5 | COc1cc2c(cc1OC)[C@@H](O)[C@H](N1CCC(c3cccc4c3OCCO4)CC1)C2 (relative stereo) | – |
| 7% | 0.437 nM | -7.19 | 148 | O[C@@H]1c2ccc(F)cc2C[C@H]1N1CCC(c2cccc3c2OCCO3)CC1 (relative stereo) | – |
| – | 1.17 nM | -7.77 | 14.5 | Cc1ccc2c(c1)C[C@@H](N1CCC(c3cccc4c3OCCO4)CC1)[C@@H]2O (relative stereo) | – |
| – | 6.61 nM | – | – | COc1ccc2c(c1)C[C@@H](N1CCN(c3cccc4c3OCCO4)CC1)[C@@H]2O (stereo in doubt; (+)) | – |
| – | 0.631 nM | – | – | O[C@@H]1c2ccc(F)cc2C[C@H]1N1CCN(c2cccc3c2OCCO3)CC1 (stereo in doubt; (+)) | – |
| – | 1.02 nM | – | – | COc1ccc2c(c1)C[C@@H](N1CCN(c3cccc4c3OCCO4)CC1)[C@@H]2O (stereo in doubt; (-)) | – |
| – | 2.04 nM | – | – | O[C@@H]1c2ccc(F)cc2C[C@H]1N1CCN(c2cccc3c2OCCO3)CC1 (stereo in doubt; (-)) | – |

| SMILES | Fh [1] | Ki [2] | Log Ki [3] | Ratio [5] | further results |
| --- | --- | --- | --- | --- | --- |
| O[C@@H]1c2ccc(F)cc2C[C@H]1N1CCC(O)(c2cccc3c2OCCO3)CC1 (relative stereo) | – | > 1000 nM | -6.31 | < 1 | – |
| O[C@@H]1c2ccc(F)cc2C[C@H]1N1CC=C(c2cccc3c2SCCC3)CC1 (relative stereo) | – | 11.7 nM | – | – | – |
| O[C@H]1c2ccc(F)cc2C[C@H]1N1CCC(O)(c2cccc3c2OCCO3)CC1 (relative stereo) | – | > 1000 nM | – | – | – |
| O[C@H]1c2ccccc2C[C@H]1N1CC=C(c2cccc3c2OCCO3)CC1 (relative stereo) | – | 22.9 nM | – | – | – |

Reference: ChEMBL document CHEMBL1135394, “Improvement in the selectivity and metabolic stability of the serotonin 5-HT(1A) ligand, S 15535: a series of cis- and trans-2-(arylcycloalkylamine) 1-indanols” (J Med Chem, 2002)
